Where two headings read alike, the source gives them in different places.
Tested on: SK-N-SH human neuroblastoma cells
Assay: Serum deprivation/JC-1 mitochondrial membrane potential (MMP) assay
Assay type: cell-based
Conditions: for Emax: SK-N-SH, read-out: JC-1 max %; for EC50: SK-N-SH cells, serum deprivation ~18 hours, JC-1 ratio normalized to peak value for 10 μM dimebolin, single curve fit to mean data of n=2-3, read-out: EC50
Method: SK-N-SH human neuroblastoma cells obtained from American Type Culture Collection (Rockville, Md.) were maintained in the log phase of growth in Minimal Essential Media (MEM), 10% heat inactivated fetal calf serum and 100 units/mL antibiotic-antimycotic (AA). Cells were cultured and maintained in a humidified incubator at 37° C. under 5% CO2 and 95% air. Cells were trypsinized (0.25%) and subcultured every 3 days and used from 15-18 passages. All cell culture supplies were obtained from Invitrogen (Carlsbad, Calif.).
SK-N-SH cells were plated 2-3 days in advance at a concentration of 50,000 cells/well onto collagen coated black-walled 96 well plates (Becton-Dickinson, Bedford, Mass.) in a total volume of 200 μL. On day of experimental treatment, the media containing serum was aspirated from each well and rinsed once with MEM/1% AA without serum. The cells then were incubated overnight in 100 μL of MEM/1% AA (no serum) with and without dimebolin or novel chemical entities overnight for ˜18 hours. The following day, JC-1 dye (5,5′,6,6′-tetrachloro-1,1′,3,3′-tetraethylbenzimidazolcarbocyanide) was diluted 1:10 into MEM media according to the JC-1 Mitochondrial Membrane Potential Assay Kit: (Cayman Chemical Company, Ann Arbor, Mich.) and then 10 μL of the JC-1 dye solution was added to each well. The plates were centrifuged for 5 minutes at 400×g at room temperature followed by 35 minute incubation at 37° C. The plates were washed twice with 200[…] μL of provided Assay Buffer followed an addition of 100 μL of Assay Buffer to each well. The plates were read with an excitation and emission of 560 nm and 595 nM for red fluorescence and with an excitation and emission of 485 nm and 535 nM for green fluorescence to determine the final JC-1 value taking the red to green fluorescence ratio. This assay is based on change in mitochondrial membrane potential (MMP) using this lipophilic cationic dye, JC-1, by monitoring the changes in the ratio of red to green fluorescence as the MMP depolarizes. This change in MMP reflects the health of the cell with healthy, viable cells have a high JC-1 ratio and high MMP whereas apoptotic, unhealthy cells have a low JC-1 ratio or low MMP.
For the ability of compounds to reverse the stress due to serum deprivation and increase the JC-1 ratio, the percent maximal intensity in JC-1 ratio was normalized to that induced by the peak value for 10 μM dimebolin and plotted against the compound concentration to calculate EC50 values and to control for plate-to-plate variability. Concentration-response data were analyzed using GraphPad Prism (San Diego, Calif.); the EC50 values were derived from a single curve fit to the mean data of n=2-3, in duplicates.
All compounds were dissolved in dimethyl sulfoxide at 10 mM stock solutions and tested at a concentration that the dimethyl sulfoxide levels never exceeded 1%.

[1] = Homo sapiens, percent maximal intensity in JC-1 ratio normalized to 10 μM dimebolin

**Q.** Which results are given for `Cc1ccc(CCn2c3c(c4cc(S(C)(=O)=O)ccc42)CN2CCC3CC2)cn1` [Example 182, 6-[2-(6-methylpyridin-3-yl)ethyl]-9-(methylsulfonyl)-3,4,5,6-tetrahydro-1H-2,5-ethanoazepino[4,3-b]indole]?
**A.** Emax [1]: 60%; EC50 (Homo sapiens): 9.28 µM

**Q.** For `Cc1ccc2c(c1)c1c(n2S(=O)(=O)c2cccnc2)CC2CCC1N2C` (stereo not shown) [Example 77, 2,11-dimethyl-5-(pyridin-3-ylsulfonyl)-5,6,7,8,9,10-hexahydro-7,10-epiminocyclohepta[b]indole], which Emax [1] is on record?
**A.** The Emax was 223%.

**Q.** What about the EC50 (Homo sapiens) of the same molecule?
**A.** The EC50 was 9.22 µM.

**Q.** What does the source list for `c1ccc(Cn2c3c(c4ccccc42)CN2CCC3CC2)nc1` [Example 187, 6-[(pyridin-2-yl)methyl]-3,4,5,6-tetrahydro-1H-2,5-ethanoazepino[4,3-b]indole]?
**A.** Emax [1]: 110%; EC50 (Homo sapiens): 9.37 µM

**Q.** With `c1ccc2c(c1)c1c(n2-c2ccc3ncncc3c2)C2CCN(CC2)C1` [Example 269, 6-(quinazolin-6-yl)-3,4,5,6-tetrahydro-1H-2,5-ethanoazepino[4,3-b]indole] as the molecule, how does the Emax [1] read?
**A.** Its Emax is 204%.

**Q.** What about the EC50 (Homo sapiens) of the same molecule?
**A.** The EC50 was 0.745 µM.

**Q.** What does the source list for `c1ccc2c(c1)c1c(n2-c2ccc3cnccc3c2)C2CCN(CC2)C1` [Example 271, 6-(isoquinolin-6-yl)-3,4,5,6-tetrahydro-1H-2,5-ethanoazepino[4,3-b]indole]?
**A.** Emax [1]: 264%; EC50 (Homo sapiens): 3.17 µM

**Q.** `Fc1ccc2c(c1)c1c(n2Cc2ccc(N3CCCCC3)nc2)C2CCN(CC2)C1` [Example 241, 9-fluoro-6-{[6-(piperidin-1-yl)pyridin-3-yl]methyl}-3,4,5,6-tetrahydro-1H-2,5-ethanoazepino[4,3-b]indole] was tested. Which Emax [1] did it give?
**A.** The Emax was 156%.

**Q.** And the EC50 (Homo sapiens)?
**A.** Its EC50 is 7.96 µM.

**Q.** For `c1ccc2c(c1)c1c(n2-c2ccc3ccncc3c2)C2CCN(CC2)C1` [Example 270, 6-(isoquinolin-7-yl)-3,4,5,6-tetrahydro-1H-2,5-ethanoazepino[4,3-b]indole], which Emax [1] is on record?
**A.** Its Emax is 270%.

**Q.** And the EC50 (Homo sapiens)?
**A.** Its EC50 is 2.81 µM.

**Q.** How did the Emax [1] turn out when `O=c1ccccn1-c1cccc(-n2c3c(c4cc(F)ccc42)CN2CCC3CC2)n1` [Example 258, 6′-(9-fluoro-1,3,4,5-tetrahydro-6H-2,5-ethanoazepino[4,3-b]indol-6-yl)-2H-1,2′-bipyridin-2-one] was run?
**A.** The Emax was 149%.

**Q.** What about the EC50 (Homo sapiens) of the same molecule?
**A.** Its EC50 is 2.99 µM.

**Q.** With `Cc1ccc2c(c1)c1c(n2CCc2ccc(C)nn2)C2CCN(CC2)C1` [Example 148, 9-methyl-6-[2-(6-methylpyridazin-3-yl)ethyl]-3,4,5,6-tetrahydro-1H-2,5-ethanoazepino[4,3-b]indole] as the molecule, how does the Emax [1] read?
**A.** The Emax was 99%.

**Q.** And the EC50 (Homo sapiens)?
**A.** Its EC50 is 3.52 µM.

**Q.** For `Cc1ccc2c(c1)c1c(n2/C=C\c2ccc(C)nc2)C2CCN(CC2)C1` [Example 147, 9-methyl-6-[(Z)-2-(6-methylpyridin-3-yl)vinyl]-3,4,5,6-tetrahydro-1H-2,5-ethanoazepino[4,3-b]indole], which Emax [1] is on record?
**A.** Its Emax is 266%.

**Q.** What about the EC50 (Homo sapiens) of the same molecule?
**A.** The EC50 was 2.53 µM.

**Q.** For `Fc1ccc2c(c1)c1c(n2Cc2ccncc2)C2CCN(CC2)C1` [Example 186, 9-fluoro-6-(pyridin-4-ylmethyl)-3,4,5,6-tetrahydro-1H-2,5-ethanoazepino[4,3-b]indole], which Emax [1] is on record?
**A.** Its Emax is 93%.

**Q.** What about the EC50 (Homo sapiens) of the same molecule?
**A.** The EC50 was 14.6 µM.

**Q.** `NC(=O)c1cc(-n2c3c(c4ccccc42)CN2CCC3CC2)ccc1N` [Example 276, 2-amino-5-(3,4,5,6-tetrahydro-1H-2,5-ethanoazepino[4,3-b]indol-6(1H)-yl)benzamide] was tested. Which EC50 did it give?
**A.** Its EC50 is 6.65 µM.

**Q.** And the JC-1 max % (percent maximal intensity in JC-1 ratio normalized to 10 μM dimebolin)?
**A.** The JC-1 max % was 80.55%.

**Q.** What does the source list for `Fc1ccc2c(c1)c1c(n2-c2ccc3ccncc3c2)C2CCN(CC2)C1` [Example 223, 9-fluoro-6-isoquinolin-7-yl-3,4,5,6-tetrahydro-1H-2,5-ethanoazepino[4,3-b]indole]?
**A.** Emax [1]: 287%; EC50 (Homo sapiens): 3.84 µM

**Q.** For `CCOC(=O)N1[C@H]2CC[C@@H]1c1c(n(CCc3ccc(C)nc3)c3ccc(C)cc13)C2` [Example 16, ethyl (7S,10R)-2-methyl-5-[2-(6-methylpyridin-3-yl)ethyl]-5,6,7,8,9,10-hexahydro-7,10-epiminocyclohepta[b]indole-11-carboxylate], which Emax [1] is on record?
**A.** Its Emax is 129%.

**Q.** What about the EC50 (Homo sapiens) of the same molecule?
**A.** Its EC50 is 8.38 µM.

**Q.** Which results are given for `Cc1ccc2c(c1)c1c(n2CCc2scnc2C)CC2CCC1N2C` (stereo not shown) [Example 35, 2,11-dimethyl-5-[2-(4-methyl-1,3-thiazol-5-yl)ethyl]-5,6,7,8,9,10-hexahydro-7,10-epiminocyclohepta[b]indole]?
**A.** Emax [1]: 78%; EC50 (Homo sapiens): 6.71 µM

**Q.** With `Cc1cc(Cn2c3c(c4cc(F)ccc42)CN2CCC3CC2)on1` [Example 252, 9-fluoro-6-[(3-methyl-1,2-oxazol-5-yl)methyl]-3,4,5,6-tetrahydro-1H-2,5-ethanoazepino[4,3-b]indole] as the molecule, how does the Emax [1] read?
**A.** The Emax was 109%.

**Q.** And the EC50 (Homo sapiens)?
**A.** The EC50 was 6.2 µM.

**Q.** With `O=c1cnc2ccc(-n3c4c(c5cc(F)ccc53)CN3CCC4CC3)cc2[nH]1` [Example 260, 7-(9-fluoro-1,3,4,5-tetrahydro-6H-2,5-ethanoazepino[4,3-b]indol-6-yl)quinoxalin-2(1H)-one] as the molecule, how does the Emax [1] read?
**A.** The Emax was 191%.

**Q.** What about the EC50 (Homo sapiens) of the same molecule?
**A.** The EC50 was 2.91 µM.

**Q.** Which Emax [1] does the source give for `Cc1ccc2c(c1)c1c(n2CCc2ccccc2C)C2CCCN(C1)C2` (stereo not shown) [Example 203, 10-methyl-7-[2-(2-methylphenyl)ethyl]-1,3,4,5,6,7-hexahydro-2,6-methanoazocino[4,3-b]indole] here?
**A.** The Emax was 159%.

**Q.** What about the EC50 (Homo sapiens) of the same molecule?
**A.** The EC50 was 4.53 µM.

**Q.** For `Fc1ccc2c(c1)c1c(n2Cc2cccnc2)C2CCN(CC2)C1` [Example 185, 9-fluoro-6-(pyridin-3-ylmethyl)-3,4,5,6-tetrahydro-1H-2,5-ethanoazepino[4,3-b]indole], which Emax [1] is on record?
**A.** The Emax was 184%.

**Q.** What about the EC50 (Homo sapiens) of the same molecule?
**A.** Its EC50 is 8.58 µM.

**Q.** Which Emax [1] does the source give for `Cc1ccc2c(c1)c1c(n2/C=C/c2ccc(C)nc2)C[C@@H]2CC[C@H]1N2C` [Example 23, (7S,10R)-2,11-dimethyl-5-[(E)-2-(6-methylpyridin-3-yl)vinyl]-5,6,7,8,9,10-hexahydro-7,10-epiminocyclohepta[b]indole] here?
**A.** The Emax was 332%.

**Q.** And the EC50 (Homo sapiens)?
**A.** The EC50 was 3.32 µM.

**Q.** Which Emax [1] does the source give for `FC12CC3CC(CN(C3)C1)c1c2c2ccccc2n1Cc1ccc(Cl)nc1` (stereo not shown) [Example 190, 8-[(6-chloropyridin-3-yl)methyl]-1-fluoro-1,4,5,6,7,8-hexahydro-2H-1,5:3,7-dimethanoazonino[5,4-b]indole] here?
**A.** Its Emax is 175%.

**Q.** What about the EC50 (Homo sapiens) of the same molecule?
**A.** The EC50 was 5.06 µM.

**Q.** What does the source list for `Cc1ccc(/C=C/n2c3c(c4cc(C)ccc42)[C@@H]2CC[C@H](C3)N2C)cc1` [Example 59, (7R,10S)-2,11-dimethyl-5-[(E)-2-(4-methylphenyl)vinyl]-5,6,7,8,9,10-hexahydro-7,10-epiminocyclohepta[b]indole]?
**A.** Emax [1]: 202%; EC50 (Homo sapiens): 4.14 µM

**Q.** Which results are given for `Cc1ccc2c(c1)c1c(n2-c2ccc3ccncc3c2)C[C@@H]2CC[C@H]1N2C` [Example 68, (7S,10R)-5-isoquinolin-7-yl-2,11-dimethyl-5,6,7,8,9,10-hexahydro-7,10-epiminocyclohepta[b]indole]?
**A.** Emax [1]: 213%; EC50 (Homo sapiens): 3.22 µM

**Q.** Which results are given for `Oc1ncnc2ccc(-n3c4c(c5cc(F)ccc53)CN3CCC4CC3)cc12` [Example 259, 6-(9-fluoro-1,3,4,5-tetrahydro-6H-2,5-ethanoazepino[4,3-b]indol-6-yl)quinazolin-4-ol]?
**A.** Emax [1]: 126%; EC50 (Homo sapiens): 3.2 µM

**Q.** For `CN1C2CCC1c1c(n(CCc3ccc(Cl)cc3)c3ccc(-c4ccc(Cl)cc4)cc13)C2` (stereo not shown) [Example 107, 2-(4-chlorophenyl)-5-[2-(4-chlorophenyl)ethyl]-11-methyl-5,6,7,8,9,10-hexahydro-7,10-epiminocyclohepta[b]indole], which Emax [1] is on record?
**A.** Its Emax is 153%.

**Q.** And the EC50 (Homo sapiens)?
**A.** The EC50 was 4.08 µM.

**Q.** `Cc1ccc2c(c1)[C@H]1CN3CCC(CC3)[C@H]1N2CCc1ccc(C)nc1` (single isomer, unassigned) [Example 160] was tested. Which Emax [1] did it give?
**A.** Its Emax is 194%.

**Q.** And the EC50 (Homo sapiens)?
**A.** The EC50 was 1.61 µM.

**Q.** Which Emax [1] does the source give for `c1cnc2cc(-n3c4c(c5ccccc53)CN3CCC4CC3)ccc2c1` [Example 234, 6-quinolin-7-yl-3,4,5,6-tetrahydro-1H-2,5-ethanoazepino[4,3-b]indole] here?
**A.** The Emax was 281%.

**Q.** And the EC50 (Homo sapiens)?
**A.** The EC50 was 1.27 µM.

**Q.** How did the Emax [1] turn out when `Cc1ccc2c(c1)c1c(n2CCc2ccc(Cl)cc2)C2CCCN(C1)C2` (stereo not shown) [Example 204, 7-[2-(4-chlorophenyl)ethyl]-10-methyl-1,3,4,5,6,7-hexahydro-2,6-methanoazocino[4,3-b]indole] was run?
**A.** The Emax was 182%.

**Q.** And the EC50 (Homo sapiens)?
**A.** The EC50 was 3.23 µM.

**Q.** Which Emax [1] does the source give for `Cc1ccc2c(c1)c1c(n2-c2ccc3ccccc3n2)C2CCN(CC2)C1` [Example 222, 9-methyl-6-quinolin-2-yl-3,4,5,6-tetrahydro-1H-2,5-ethanoazepino[4,3-b]indole] here?
**A.** Its Emax is 215%.

**Q.** What about the EC50 (Homo sapiens) of the same molecule?
**A.** Its EC50 is 4.43 µM.
